Laboratory results: publication PMC4780864, “Family-wide Structural Analysis of Human Numb-Associated Protein Kinases” (Structure(London, England:1993), 2016)

Experiments:
Experiment in all cases: biochemical
GAK = target: T1, GAK (Homo sapiens, UniProt O14976); parameters: Thermal shift assay (DSF, SYPRO Orange), 2 uM kinase domain, mean delta Tm of triplicates versus DMSO; settings: read-out: GAK
T1 construct: catalytic domain-containing construct
T1 sequence (O14976 1-1311): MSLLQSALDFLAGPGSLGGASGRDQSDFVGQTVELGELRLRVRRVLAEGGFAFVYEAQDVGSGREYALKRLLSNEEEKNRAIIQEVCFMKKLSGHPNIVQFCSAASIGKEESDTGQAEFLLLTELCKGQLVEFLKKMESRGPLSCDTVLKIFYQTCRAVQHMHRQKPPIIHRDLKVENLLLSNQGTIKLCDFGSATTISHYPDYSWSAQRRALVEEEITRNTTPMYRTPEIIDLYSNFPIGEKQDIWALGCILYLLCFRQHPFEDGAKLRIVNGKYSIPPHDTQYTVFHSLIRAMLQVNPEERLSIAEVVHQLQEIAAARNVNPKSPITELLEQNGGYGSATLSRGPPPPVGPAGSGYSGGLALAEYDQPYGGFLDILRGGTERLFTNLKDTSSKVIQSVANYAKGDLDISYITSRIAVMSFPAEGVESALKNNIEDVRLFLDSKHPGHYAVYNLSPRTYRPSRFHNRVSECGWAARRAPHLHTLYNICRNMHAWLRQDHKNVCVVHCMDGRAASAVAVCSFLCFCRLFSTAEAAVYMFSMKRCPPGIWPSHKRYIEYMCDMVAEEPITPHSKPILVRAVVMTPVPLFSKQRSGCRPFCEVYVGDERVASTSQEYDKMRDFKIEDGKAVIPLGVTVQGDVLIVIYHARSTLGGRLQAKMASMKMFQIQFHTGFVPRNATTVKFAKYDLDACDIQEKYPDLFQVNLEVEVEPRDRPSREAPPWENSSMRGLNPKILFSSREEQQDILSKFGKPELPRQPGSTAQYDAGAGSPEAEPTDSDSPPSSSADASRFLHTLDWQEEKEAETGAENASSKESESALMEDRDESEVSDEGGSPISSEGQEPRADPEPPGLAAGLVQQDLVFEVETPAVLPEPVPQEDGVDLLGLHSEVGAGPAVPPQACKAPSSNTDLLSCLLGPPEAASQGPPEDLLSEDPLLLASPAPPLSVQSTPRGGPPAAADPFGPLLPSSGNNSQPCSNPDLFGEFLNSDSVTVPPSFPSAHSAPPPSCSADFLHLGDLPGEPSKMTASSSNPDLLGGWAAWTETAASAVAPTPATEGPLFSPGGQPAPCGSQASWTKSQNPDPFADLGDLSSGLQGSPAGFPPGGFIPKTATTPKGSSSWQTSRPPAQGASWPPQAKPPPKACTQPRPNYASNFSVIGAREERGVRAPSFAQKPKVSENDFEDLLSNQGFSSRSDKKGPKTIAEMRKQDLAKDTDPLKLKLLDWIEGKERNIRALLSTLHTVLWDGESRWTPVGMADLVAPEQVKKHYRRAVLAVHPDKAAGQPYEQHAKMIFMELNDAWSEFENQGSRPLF
Procedure: (§1) All measurements were performed in triplicate and mean values were reported for all compounds (Table S1). […] However, NAKs are often omitted from selectivity panels, including commercial screens.

MPSK1 = target: T2, MPSK1 (Homo sapiens, UniProt O75716); parameters: Thermal shift assay (DSF, SYPRO Orange), 2 uM kinase domain, mean delta Tm of triplicates versus DMSO; settings: for ΔTm at 12.5 µM: read-out: MPSK1; for MPSK1: 12.5 µM
T2 construct: gene STK16; catalytic domain-containing construct
T2 sequence (O75716 whole entry, the tested form may be a part): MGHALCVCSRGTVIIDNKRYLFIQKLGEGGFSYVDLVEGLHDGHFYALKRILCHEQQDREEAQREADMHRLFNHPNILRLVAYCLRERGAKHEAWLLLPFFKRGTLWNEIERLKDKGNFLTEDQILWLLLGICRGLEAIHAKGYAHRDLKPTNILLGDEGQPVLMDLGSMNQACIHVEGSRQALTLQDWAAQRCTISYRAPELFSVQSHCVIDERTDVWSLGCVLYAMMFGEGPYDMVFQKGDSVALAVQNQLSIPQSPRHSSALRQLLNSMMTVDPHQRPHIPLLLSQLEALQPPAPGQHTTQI
Procedure: as §1

BIKE = target: T3, BIKE (Homo sapiens, UniProt Q9NSY1); parameters: Thermal shift assay (DSF, SYPRO Orange), 2 uM kinase domain, mean delta Tm of triplicates versus DMSO; settings: read-out: BIKE
T3 construct: gene BMP2K; catalytic domain-containing construct
T3 sequence (Q9NSY1 whole entry, the tested form may be a part): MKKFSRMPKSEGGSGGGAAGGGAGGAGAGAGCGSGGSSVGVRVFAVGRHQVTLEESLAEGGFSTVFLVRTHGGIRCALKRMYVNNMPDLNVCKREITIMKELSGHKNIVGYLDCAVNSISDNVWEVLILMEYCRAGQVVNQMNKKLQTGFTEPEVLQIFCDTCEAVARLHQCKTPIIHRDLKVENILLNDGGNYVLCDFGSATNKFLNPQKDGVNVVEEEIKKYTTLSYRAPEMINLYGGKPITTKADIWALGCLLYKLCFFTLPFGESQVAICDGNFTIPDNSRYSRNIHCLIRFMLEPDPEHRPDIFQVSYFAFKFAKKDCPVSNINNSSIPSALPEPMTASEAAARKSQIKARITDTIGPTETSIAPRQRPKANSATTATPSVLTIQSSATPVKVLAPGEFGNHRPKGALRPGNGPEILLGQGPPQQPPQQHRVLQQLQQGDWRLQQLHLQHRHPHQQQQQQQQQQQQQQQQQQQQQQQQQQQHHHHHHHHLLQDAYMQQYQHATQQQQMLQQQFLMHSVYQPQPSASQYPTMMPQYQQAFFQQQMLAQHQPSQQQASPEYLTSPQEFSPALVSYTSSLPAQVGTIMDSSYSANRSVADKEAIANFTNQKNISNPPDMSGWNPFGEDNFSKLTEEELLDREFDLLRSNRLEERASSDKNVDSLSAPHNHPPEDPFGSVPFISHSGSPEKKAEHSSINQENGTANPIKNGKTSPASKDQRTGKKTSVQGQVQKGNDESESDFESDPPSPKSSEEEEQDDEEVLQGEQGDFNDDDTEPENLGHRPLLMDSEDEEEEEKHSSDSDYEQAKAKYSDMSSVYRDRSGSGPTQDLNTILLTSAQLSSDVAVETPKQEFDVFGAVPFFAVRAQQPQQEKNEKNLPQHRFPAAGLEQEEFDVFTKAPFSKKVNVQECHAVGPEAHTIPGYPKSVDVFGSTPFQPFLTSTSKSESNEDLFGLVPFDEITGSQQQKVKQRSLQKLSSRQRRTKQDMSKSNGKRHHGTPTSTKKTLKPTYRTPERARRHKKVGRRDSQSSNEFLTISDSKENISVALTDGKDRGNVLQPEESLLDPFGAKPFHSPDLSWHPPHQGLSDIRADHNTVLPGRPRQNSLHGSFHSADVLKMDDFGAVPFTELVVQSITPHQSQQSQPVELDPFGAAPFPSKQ
Procedure: as §1

AAK1 = AAK1 (Homo sapiens, UniProt Q2M2I8); parameters: kinase domain; Thermal shift assay (DSF, SYPRO Orange), 2 uM kinase domain, mean delta Tm of triplicates versus DMSO; settings: for ΔTm at 12.5 µM: read-out: AAK1
Chain of AAK1 (Q2M2I8 27-365 limits assumed): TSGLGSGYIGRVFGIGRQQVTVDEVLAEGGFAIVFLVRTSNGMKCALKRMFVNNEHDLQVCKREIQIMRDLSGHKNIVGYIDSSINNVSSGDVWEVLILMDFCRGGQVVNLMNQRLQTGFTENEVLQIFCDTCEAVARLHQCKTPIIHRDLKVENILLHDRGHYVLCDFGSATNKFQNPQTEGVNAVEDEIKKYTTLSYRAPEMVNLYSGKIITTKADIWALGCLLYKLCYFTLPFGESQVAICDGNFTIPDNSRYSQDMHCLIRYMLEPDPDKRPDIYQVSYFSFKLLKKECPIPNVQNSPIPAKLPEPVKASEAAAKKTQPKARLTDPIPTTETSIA
Procedure: as §1

SMILES	ΔTm at 12.5 µM (GAK) [°C]	ΔTm at 12.5 µM (MPSK1) [°C]	ΔTm at 12.5 µM (BIKE) [°C]	ΔTm at 12.5 µM (AAK1) [°C]	MPSK1 (MPSK1) [°C]	AAK1 (AAK1; 12.5 µM) [°C]
CC(C)(C)c1cnc(CSc2cnc(NC(=O)C3CCNCC3)s2)o1 [SNS-032]	0.0467	3.53	1.11	0.69	–	–
COc1cc(N2CCC(N3CCN(C)CC3)CC2)ccc1Nc1ncnc(Nc2ccccc2S(=O)(=O)C(C)C)n1 [ASP3026]	3.17	1.08	2.92	4.23	–	–
Cc1cc2c(F)c(Oc3ncnn4cc(OC[C@@H](C)O)c(C)c34)ccc2[nH]1 [Brivanib]	0.347	0.977	0.81	1.34	–	–
C[C@@H](Oc1cc(-c2cnn(C3CCNCC3)c2)cnc1N)c1c(Cl)ccc(F)c1Cl [Crizotinib]	-0.44	1.95	7.44	3.01	–	–
N#CC1(c2ccc(NC(=O)c3cccnc3NCc3ccncc3)cc2)CCCC1 [Apatinib]	-0.113	0.55	0.843	0.223	–	–
CC1(C)CNc2cc(NC(=O)c3cccnc3NCc3ccncc3)ccc21 [Motesanib]	0.437	0.7	0.3	0.467	–	–
Cn1c(=O)c(F)c(Nc2ccc(I)cc2F)c2c(=O)n(C[C@@H](O)CO)cnc21 [TAK-733]	-0.183	0.277	0.177	0.0367	–	–
C#Cc1cccc(Nc2ncnc3cc(OCCOC)c(OCCOC)cc23)c1 [Erlotinib]	3.74	0.883	5.66	2.7	–	–
C#Cc1cccc(Nc2ncnc3cc4c(cc23)OCCOCCOCCO4)c1 [Icotinib]	3.33	0.81	4.47	2.56	–	–
CC(C)(C)Cn1c(N)nc2ccc(-c3[nH]c(C(C)(C)C)nc3-c3ccc(F)cc3)nc21 [Ralimetinib]	9.03	1.32	1.12	0.397	–	–
Cc1cnc(NC(=O)Nc2cc(Br)c(C)cc2OC[C@@H]2CNCCO2)cn1 [Rabusertib]	-0.263	2.49	3.04	1.55	–	–
FC(F)c1nc2ccccc2n1-c1nc(N2CCOCC2)nc(N2CCOCC2)n1 [ZSTK474]	0.02	1.24	0.633	0.383	–	–
Cc1cnc(Nc2ccc(OCCN3CCCC3)cc2)nc1Nc1cccc(S(=O)(=O)NC(C)(C)C)c1 [Fedratinib]	8.95	12.4	14	10.6	–	–
CCc1cc(Nc2nccc(-c3c(-c4ccc(OC)c(C(=O)Nc5c(F)cccc5F)c4)nc4ccccn34)n2)c(OC)cc1N1CCC(N2CCN(S(C)(=O)=O)CC2)CC1 [GSK1904529A]	0.227	-0.0133	0.13	-0.16	–	–
Cc1cnc(Nc2ccc(F)cc2Cl)nc1-c1c[nH]c(C(=O)N[C@H](CO)c2cccc(Cl)c2)c1 [VX-11E]	-1.45	0.627	0.147	-0.203	–	–
CCn1c(C(=O)N(C2CC2)C2CC2)cc2c3c(ncn3C)c(Nc3cc(C)n(C)n3)nc21 [BMS-911543]	1.58	0.99	4.41	1.25	–	–
Oc1c2ccccc2c2c3c(cccc13)N=N2 [SP600125]	0.24	0.11	14.2	6.88	–	–

SMILES	ΔTm at 12.5 µM (GAK) [°C]	ΔTm at 12.5 µM (MPSK1) [°C]	ΔTm at 12.5 µM (BIKE) [°C]	ΔTm at 12.5 µM (AAK1) [°C]	MPSK1 (MPSK1) [°C]	AAK1 (AAK1; 12.5 µM) [°C]
COc1cc2nccc(Oc3ccc(NC(=O)NC4CC4)c(Cl)c3)c2cc1C(N)=O [Lenvatinib]	2.03	1.5	2.49	2.07	–	–
Cc1ccc(NC(=O)c2ccc(CN3CC[C@H](N(C)C)C3)c(C(F)(F)F)c2)cc1Nc1nccc(-c2cncnc2)n1 [Bafetinib]	4.57	2.51	1.1	1.07	–	–
COc1cc2ncnc(Nc3ccc(F)c(Cl)c3)c2cc1OCCCN1CCOCC1 [Gefitinib]	6.66	0.263	2.84	1.69	–	–
CCn1c(-c2nonc2N)nc2cnc(Oc3cccc(NC(=O)c4ccc(OCCN5CCOCC5)cc4)c3)cc21 [GSK269962]	0.157	2.88	6.73	7.43	–	–
N#CC[C@H](C1CCCC1)n1cc(-c2ncnc3[nH]ccc23)cn1 [Ruxolitinib]	2.88	–	8.65	6.18	5.233	–
C[C@]12O[C@H](C[C@]1(O)CO)n1c3ccccc3c3c4c(c5c6ccccc6n2c5c31)CNC4=O [Lestaurtinib]	10.8	11.1	16.5	13.6	–	–
COc1cc(F)c(F)c(Nc2ccc(I)cc2F)c1NS(=O)(=O)C1(C[C@H](O)CO)CC1 [Refametinib]	-1.26	0.663	-0.02	-0.0333	–	–
O=C(Cc1ccc(-c2ccc(OCCN3CCOCC3)cc2)cn1)NCc1ccccc1 [KX2-391]	0.46	0.373	1.76	0.0867	–	–
Cc1ccc(Nc2nccc(N(C)c3ccc4c(C)n(C)nc4c3)n2)cc1S(N)(=O)=O [Pazopanib]	2.72	7.31	7.25	3.85	–	–
COc1cc2/c(=N/c3ccc(Br)cc3F)nc[nH]c2cc1OCC1CCN(C)CC1 [Vandetanib]	1.75	1.1	0.127	1.05	–	–
Nc1ncnc2c1c(COc1cccc(Cl)c1)nn2C1CCOCC1 [PF-4800567]	-0.663	0.933	0.437	0.283	–	–
COc1cc(OC)c(/C=C/S(=O)(=O)Cc2ccc(OC)c(NCC(=O)O)c2)c(OC)c1 [Rigosertib]	-0.48	0.583	0.203	0.19	–	–
CC(C)NC[C@@H](C(=O)N1CCN(c2ncnc3c2[C@H](C)C[C@H]3O)CC1)c1ccc(Cl)cc1 [Ipatasertib]	-0.727	0.84	0.34	0.3	–	–
CCS(=O)(=O)N1CC(CC#N)(n2cc(-c3ncnc4[nH]ccc34)cn2)C1 [baricitinib]	2.06	–	10.2	–	4.053	8.293
CNC(=O)c1cccc(-c2ccc3c(N4CCOC[C@@H]4C)nc(N4CCOC[C@@H]4C)nc3n2)c1 [AZD2014]	-0.433	1.12	0.477	0.373	–	–
COc1ccc(-c2cc3c(C)nc(N)nc3n([C@H]3CC[C@H](OCCO)CC3)c2=O)cn1 [PF-04691502]	-0.593	1.43	0.623	0.327	–	–
